# Source: patent publication US8628792B2, “Drug cores for sustained release of therapeutic agents” (Mati Therapeutics, Inc., priority 2007, dated 2014)
# “And” between values parts separate entries of the source, which are not always exact repeats. Identical values can stand only once.
# Tests used:
# [1] = Inclusion (droplet) diameter in silicone/latanoprost cores, scanning electron micrographs; assay type: physicochemical; settings: for average inclusion diameter and standard deviation: latanoprost-silicone mixture, n=40 inclusion; for average diameter of latanoprost droplets: silicone matrix
# Experimental: A two part silicone formulation (MED6385, Nusil Technologies) was used in the preparation of a composite resin containing latanoprost, which was used to fill a section of polyimide sheathing. The sheathing containing the polymerized silicone incorporates discrete latanoprost domains, existing in the form of droplets of less than about 25 μm maximum diameter, within the matrix. Several experiments were conducted.
# Part A of the MED6385 silicone formulation was mixed with 0.43 μL of Part B, the tin catalyst, using syringes, to bring about partial coagulation of the polymer over 30 minutes. Then, 37 mg of that material was mixed with a premixed solution of 0.144 additional catalyst and 13 mg latanoprost, and that mixture could be further mixed by sonication with an ultrasonic probe. The resulting mixture was transferred to a syringe needle connected to a HP7x syringe adapter, which is connected to an EFD pump, which is in turn connected to a compressed air system and the delivery pressure set to 40 psi. The silicone-latanoprost mixture is then extruded down the length (10 cm) of polyimide tubing (IWG High Performance Conductors, Inc.). When the viscous mixture reached the bottom of polyimide tubing, clamps were applied at the bottom of the tubing and at the top connection with the syringe adapter, then pressure is released and the tubing section removed. The clamped section of tubing was placed in a humidity chamber (Thunder Scientific) for curing at 40° C. and 80% relative humidity (RH) for approximately 16-24 hrs.
# Scanning electron micrographs of the sheath containing the cured matrix, i.e., the filled precursor sheath, are shown in FIG. 15A-D at the magnifications indicated. The inserts were sectioned cryogenically. FIGS. 15A and 15B, respectively, show the insert cores wherein the extrusion was carried at 40° C. (A) or 25° C. (B).
# The temperature of the mixture, and of the associated apparatus involved in filling the polyimide sheath was held at various temperatures during the injection process. Among the temperatures used were a slightly elevated temperature (40° C.), approximate room temperature (25° C.), and subambient temperatures, such as 0° C., −5° C., and −25° C. The subambient injection procedures are provided in this Example.
# Scanning electron micrographs of the sheath containing the cured matrix, i.e., the filled precursor sheath, are shown in FIG. 15A-D at the magnifications indicated. The inserts were sectioned cryogenically. FIGS. 15C and 15D show the results of extrusions carried out at 0° C. and −25° C. respectively. They can be compared with FIGS. 15A and 15B that were carried out at ambient temperature (25° C.) or above (40° C.).
# Measurements of average inclusion diameters, and standard deviation thereof, are as shown: […]
# [2] = Latanoprost content per 1 mm section divided from a filled precursor tube; assay type: physicochemical
# Experimental: (squares) unexpectedly produced a more uniform distribution of therapeutic agent latanoprost in the silicone matrix, after curing, along the entire length of the 10 cm precursor sheath, which was subsequently divided into 1 mm sections, and the latanoprost content of each sections (drug insert) determined. Extrusions carried out at room temperature (circles) and at 40° C. […] The results are significant in terms of manufacturing medically useful devices, as it is desirable to maintain a uniform content of the therapeutic agent among a plurality of drug inserts manufactured by this method.
# Measurements of average latanoprost content (μg) per 1 mm section (core) divided (razor blade) from a filled precursor tube are as shown: […]
# IOP = settings: cited from earlier work
compound,measurement,setting,value
CC(C)OC(=O)CCC/C=C\C[C@@H]1[C@@H](CC[C@@H](O)CCc2ccccc2)[C@H](O)C[C@@H]1O [Latanoprost],average inclusion diameter and standard deviation,[1]; Cold extrusion (−5° C.),0.006±0.002 mm
same,maximum diameter of latanoprost droplets,"[1]; MED6385 matrix, high pressure filling",less than 25 μm
same,average inclusion diameter and standard deviation,[1]; Room temp (22° C.) extrusion,0.019+0.019 mm and 0.019±0.019 mm
same,average diameter of latanoprost droplets,[1]; cold extrusion (−5° C.),6 μm
same,average diameter of latanoprost droplets,[1]; extrusion at room temperature,19 μm
same,average latanoprost content per 1 mm section (Average±SD),[2]; Cold extrusion (−5° C.),20.9 ± 0.5 µg
same,average latanoprost content per 1 mm section (Average±SD),[2]; Room temperature (22° C.) extrusion,20.2 ± 1.9 µg
same,duration of IOP lowering,IOP; about 200 ng of drug remaining on the eye after a drop of Xalatan,at least 24 hours
same,IOP reduction relative to that of the 50 μg/mL QD dose,IOP; lowest doses of 12.5 μg/mL QD or 15 μg/mL BID,60-75%
